# Test results reported in patent publication US20180020662A1, “Substituted 1-cycloalkyl-2-oxotetrahydroquinolin-6-ylsulfonamides or salts thereof and use thereof to increase stress tolerance in plants” (BAYER CROPSCIENCE AKTIENGESELLSCHAFT, priority 2015, published 2018).
# Legend:
# Triticum aestivum = assay: Drought stress test on potted crop plants, spray application, visual scoring against stressed control plants; assay type: in vivo; design: key: 0: no positive effect; +: slight positive effect; ++: clear positive effect; +++: strong positive effect; details: mean of at least three repeats
# Protocol: (§1) Seeds of monocotyledonous and dicotyledonous crop plants were sown in sandy loam in plastic pots, covered with soil or sand and cultivated in a greenhouse under good growth conditions. The test plants are treated at the early leaf stage (BBCH10-BBCH13). To assure uniform water supply before commencement of stress, the potted plants were supplied with water by dam irrigation prior to substance application. The inventive compounds were first formulated as wettable powders (WP) or dissolved in a solvent mixture. The further dilution was effected with water supplemented with 0.2% wetting agent (e.g. agrotin). The finished spray liquor was sprayed onto the green parts of the plant at an equivalent water application rate of 600 I/ha. Substance application was followed immediately by stress treatment of the plants. Drought stress was induced by gradual drying out under the following conditions: “Day”: 14 hours with illumination at […]. “Night”: 10 hours without illumination at […]. The duration of the respective stress phases was guided mainly by the condition of the stressed control plants. It was ended (by re-irrigating and transfer to a greenhouse with good growth conditions) as soon as irreversible damage was observed on the stressed control plants. The end of the stress phase was followed by an about 4-7-day recovery phase, during which the plants were once again kept under good growth conditions in a greenhouse. The duration of the recovery phase was guided mainly by when the trial plants had attained a state which enabled visual scoring of potential effects, and was therefore variable. Once this juncture had been reached, the appearance of the plants treated with test substances was recorded in comparison to the stressed control plants by the following categories: • 0 no positive effect • + slight positive effect • ++ clear positive effect • +++ strong positive effect In order to rule out any influence on the effects observed by any fungicidal or insecticidal action of the test compounds, it was additionally ensured that the tests proceeded without fungal infection or insect infestation. The values reported in tables A-1 and A-2 below are mean values of the results from at least three repeats. Effects of selected compounds of the general formula (I) under drought stress according to the following tables A-1 and A-2: In the above tables: BRSNS =Brassica napus TRZAS =Triticum aestivum
# [1] = target: T1, phosphatase ABI1 via the co-regulator RCAR11/PYR1 (Arabidopsis thaliana, UniProt O49686+P49597); assay: In vitro assay: inhibition of ABI1 dephosphorylation of 4-methylumbelliferyl phosphate (MUP), fluorescence; assay type: biochemical; details: concentration of 5 mM of the substance in DMSO and water, 35° C., 20 minutes
# T1 sequence (O49686 1-191): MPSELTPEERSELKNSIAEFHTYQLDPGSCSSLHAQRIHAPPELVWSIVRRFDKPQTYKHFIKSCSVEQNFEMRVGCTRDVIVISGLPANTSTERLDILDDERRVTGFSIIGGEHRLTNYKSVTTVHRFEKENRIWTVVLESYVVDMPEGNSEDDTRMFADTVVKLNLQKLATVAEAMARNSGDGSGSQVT
# T1 sequence (P49597 1-434): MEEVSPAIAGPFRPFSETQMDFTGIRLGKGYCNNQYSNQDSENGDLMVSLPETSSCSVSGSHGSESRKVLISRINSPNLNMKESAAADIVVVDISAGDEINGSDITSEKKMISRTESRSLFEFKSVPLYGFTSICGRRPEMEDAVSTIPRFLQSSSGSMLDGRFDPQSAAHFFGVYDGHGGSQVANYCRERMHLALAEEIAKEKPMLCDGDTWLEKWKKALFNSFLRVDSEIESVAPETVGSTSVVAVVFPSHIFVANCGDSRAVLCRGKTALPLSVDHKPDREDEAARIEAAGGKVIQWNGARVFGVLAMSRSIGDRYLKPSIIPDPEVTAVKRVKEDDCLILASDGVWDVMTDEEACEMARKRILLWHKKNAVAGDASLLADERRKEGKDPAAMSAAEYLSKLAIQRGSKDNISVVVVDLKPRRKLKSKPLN
# Source text: Effects of the phytohormone abscisic acid (ABA) on the behavior of plants under abiotic stress and the mechanism of action of ABA are described in the literature (cf. Abrams et al., WO97/23441, Park et al. Science, 2009, 324, 1068; Grill et al. Science, 2009, 324, 1064; Tanokura et al. Biophysics, 2011, 7, 123; Schroeder et al. Plant J. 2010, 61, 290). Therefore, it is possible with the aid of a suitable in vitro test system to derive a correlation between the action of ABA and the stress response of a plant under abiotic stress. In the event of water deficiency (drought stress), plants form the phytohormone abscisic acid (ABA). This binds, along with a co-regulator (Regulatory Component of ABA-Receptor=RCAR according to Grill et al. Science, 2009, 324, 1064 or PYR/PYL according to Cutler et al. Science, 2009, 324, 1068), to a phosphatase (e.g. ABI1, a type 2C protein phosphatase, also abbreviated to PP2C) and inhibits its activity. As a result, a “downstream” kinase (e.g. SnRK2) is no longer dephosphorylated. This kinase, which is thus active, via phosphorylation of transcription factors (e.g. AREB/ABF, cf. Yoshida et al Plant J. 2010, 61, 672), switches on a genetic protection program to increase drought stress tolerance. The assay described hereinafter utilizes the inhibition of the phosphatase ABI1 via the co-regulator RCAR11/PYR1 aus Arabidopsis thaliana. For the determination of activity, the dephosphorylation of 4-methylumbelliferyl phosphate (MUP) was measured at 460 nm. The in vitro assay was conducted in Greiner 384-well PS microplates F-well, using two controls: a) 0.5% dimethyl sulfoxide (DMSO) and b) 5 μM abscisic acid (ABA). The assay described here was generally conducted with substance concentrations of the appropriate chemical test substances in a concentration range of 0.1 μM to 100 μM in a solution of DMSO and water. The substance solution thus obtained, if necessary, was stirred with esterase from porcine liver (EC 3.1.1.1) at room temperature for 3 h and centrifuged at 4000 rpm for 30 min. A total volume of 45 μl was introduced into each cavity of the microplate, having the following composition: • 1) 5 μl of substance solution, i.e. a) DMSO 5% or b) abscisic acid solution or c) the corresponding example compound of the general formula (I) dissolved in 5% DMSO. • 2) 20 μl of enzyme buffer mix, composed of a) 40% by vol. of enzyme buffer (10 ml contain equal proportions by volume of 500 mM Tris-HCl pH 8, 500 mM NaCl, 3.33 mM MnCl2, 40 mM dithiothreitol (DTT)), b) 4% by vol. of ABI1 dilution (protein stock solution was diluted so as to give, after addition, a final concentration in the assay of 0.15 μg ABI1/well), c) 4% by vol. of RCAR11 dilution (enzyme stock was diluted so as to give, on addition of the dilution to the enzyme buffer mix, a final concentration in the assay of 0.30 μg enzyme/well), d) 5% by vol. of Tween20 (1%), e) 47% by vol. H2O bi-dist. • 3) 20 μl of substrate mix, composed of a) 10% by vol. of 500 mM Tris-HCl pH 8, b) 10% by vol. of 500 mM NaCl, c) 10% by vol. of 3.33 mM MnCl2, d) 5% by vol. of 25 mM MUP, 5% by vol. of Tween20 (1%), 60% by vol. of H2O bi-dist.
# Enzyme buffer mix and substrate mix were made up 5 minutes prior to the addition and warmed to a temperature of 35° C. On completion of pipetting of all the solutions and on completion of mixing, the plate was incubated at 35° C. for 20 minutes. Finally, a relative fluorescence measurement was made at 35° C. with a BMG Labtech “POLARstar Optima” microplate reader using a 340/10 nm excitation filter and a 460 nm emission filter. The efficacy of the compounds of the general formula (I) is reported in the table which follows using abscisic acid […] as comparative substance (no. 38) according to the following classification: ++++(inhibition ≧90%), +++(90% >inhibition ≧70%), ++(70% >inhibition ≧50%), +(50% >inhibition ≧30%). […]
# Brassica napus = assay: Drought stress test on potted crop plants, spray application, visual scoring against stressed control plants; assay type: in vivo; design: key: 0: no positive effect; +: slight positive effect; ++: clear positive effect; +++: strong positive effect; details: mean of at least three repeats
# Protocol: as §1
ABI1 inhibition [1],SMILES,Effect (TRZAS) (Triticum aestivum; dosage 250 g/ha),Effect (BRSNS) (Brassica napus; dosage 250 g/ha),Effect (BRSNS) (Brassica napus; dosage 25 g/ha),Effect (TRZAS) (Triticum aestivum; dosage 25 g/ha)
+++ (90% >inhibition ≧70%),O=C1CCc2cc(NS(=O)(=O)Cc3ccc(Cl)cc3)ccc2N1C1CC1C(F)(F)F (centres unmarked) [A37-165],++,,,
++++ (inhibition ≧90%),"CC1(N2C(=O)CCc3cc(NS(=O)(=O)Cc4ccc(Cl)cc4)ccc32)CC1 [A1-165, 1-(4-Chlorophenyl)-N-[1-(1-methylcyclopropyl)-2-oxo-1,2,3,4-tetrahydroquinolin-6-yl]methanesulfonamide]",+,++,,
++++ (inhibition ≧90%),O=C1CCc2cc(NS(=O)(=O)Cc3ccc(F)cc3)ccc2N1C1(C2CC2)CC1 [A3-158],+,,,
,N#Cc1ccc(S(=O)(=O)Nc2ccc3c(c2)CCC(=O)N3C2CC2C2CC2)cc1 (centres unmarked) [A16-45],,,++,+
,N#Cc1ccc(S(=O)(=O)Nc2ccc3c(c2)CCC(=O)N3C2CC(F)(F)C2)cc1 [A39-45],++,,,
,CC1CCC1N1C(=O)CCc2cc(NS(=O)(=O)c3ccc(C#N)cc3)ccc21 (centres unmarked) [A38-45],+,,,
++++ (inhibition ≧90%),O=C1CCc2cc(NS(=O)(=O)Cc3ccc(Cl)cc3)ccc2N1C12CC(C1)C2 [A30-165],++,,,
,CC1(N2C(=O)CCc3cc(NS(=O)(=O)c4ccc(C#N)cc4)ccc32)CC1 [A1-45],,,,+
+++ (90% >inhibition ≧70%),CC1(N2C(=O)CCc3cc(NS(=O)(=O)Cc4cccc(Cl)c4)ccc32)CC1 [A1-166],,++,,
+++ (90% >inhibition ≧70%),Cc1cccc(CS(=O)(=O)Nc2ccc3c(c2)CCC(=O)N3C23CC(C2)C3)c1 [A30-153],,+,,
++++ (inhibition ≧90%),O=C1CCc2cc(NS(=O)(=O)Cc3ccc(F)cc3)ccc2N1C12CC(C1)C2 [A30-158],,,,+
++++ (inhibition ≧90%),O=C1CCc2cc(NS(=O)(=O)Cc3ccc(Cl)cc3)ccc2N1C1(C2CC2)CC1 [A3-165],+,,,
++++ (inhibition ≧90%),CC1CC(N2C(=O)CCc3cc(NS(=O)(=O)Cc4ccc(F)cc4)ccc32)C1 (centres unmarked) [A26-158],,,+,
++++ (inhibition ≧90%),CC1(N2C(=O)CCc3cc(NS(=O)(=O)Cc4ccc(C#N)cc4)ccc32)CC1 [A1-181],+,++,,
++++ (inhibition ≧90%),N#Cc1ccc(CS(=O)(=O)Nc2ccc3c(c2)CCC(=O)N3C2(C3CC3)CC2)cc1 [A3-181],,,,+
